From article PMC10518257 (Nature Cancer, 2023)
Values joined by “and” are separate entries in the source; they are usually repeats but may differ in a detail not shown here. Equal entries are not always repeated. Where two headings read alike, the source gives them in different places.

Experiments:
[1] = system: Ba/F3 cells expressing KIF5B–RET^G810R; assay: Growth inhibition assay in Ba/F3 cells (CellTiter-Glo, 72 h); assay type: cell-based; conditions: replicate Sets 1-3
MMNK1 cholangiocytes = assay: Growth inhibition (alamarBlue, 96 h); assay type: cell-based, human; conditions: for raw viability signal (Source Data Fig. 3b-c): MMNK, replicates
Ba/F3-CCDC6::RET^S904F = assay: Growth inhibition assay in Ba/F3 cells (CellTiter-Glo, 72 h); assay type: cell-based
LUAD-0086AS3 cells = assay: Growth inhibition (alamarBlue, 96 h); assay type: cell-based, human; conditions: for raw viability signal (Source Data Fig. 3b-c): LUAD-0086AS3 (n=1, 3 replicates)
LUAD-0087AS2 PDX = assay: PDX efficacy study; conditions: pralsetinib 30 mg/kg BID
[2] = Transcellular transport study, apparent permeability; conditions: pig, LLC-PK1
[3] = biological target: T1, panel of 255 (vepafestinib) or 256 (all other inhibitors) recombinant kinases (Homo sapiens, UniProt P16234); assay: Kinase selectivity profiling at a single concentration (Carna Biosciences); assay type: biochemical; conditions: 17 nM
T1 construct: purchased Carna Biosciences
T1 sequence (P16234 24-1089): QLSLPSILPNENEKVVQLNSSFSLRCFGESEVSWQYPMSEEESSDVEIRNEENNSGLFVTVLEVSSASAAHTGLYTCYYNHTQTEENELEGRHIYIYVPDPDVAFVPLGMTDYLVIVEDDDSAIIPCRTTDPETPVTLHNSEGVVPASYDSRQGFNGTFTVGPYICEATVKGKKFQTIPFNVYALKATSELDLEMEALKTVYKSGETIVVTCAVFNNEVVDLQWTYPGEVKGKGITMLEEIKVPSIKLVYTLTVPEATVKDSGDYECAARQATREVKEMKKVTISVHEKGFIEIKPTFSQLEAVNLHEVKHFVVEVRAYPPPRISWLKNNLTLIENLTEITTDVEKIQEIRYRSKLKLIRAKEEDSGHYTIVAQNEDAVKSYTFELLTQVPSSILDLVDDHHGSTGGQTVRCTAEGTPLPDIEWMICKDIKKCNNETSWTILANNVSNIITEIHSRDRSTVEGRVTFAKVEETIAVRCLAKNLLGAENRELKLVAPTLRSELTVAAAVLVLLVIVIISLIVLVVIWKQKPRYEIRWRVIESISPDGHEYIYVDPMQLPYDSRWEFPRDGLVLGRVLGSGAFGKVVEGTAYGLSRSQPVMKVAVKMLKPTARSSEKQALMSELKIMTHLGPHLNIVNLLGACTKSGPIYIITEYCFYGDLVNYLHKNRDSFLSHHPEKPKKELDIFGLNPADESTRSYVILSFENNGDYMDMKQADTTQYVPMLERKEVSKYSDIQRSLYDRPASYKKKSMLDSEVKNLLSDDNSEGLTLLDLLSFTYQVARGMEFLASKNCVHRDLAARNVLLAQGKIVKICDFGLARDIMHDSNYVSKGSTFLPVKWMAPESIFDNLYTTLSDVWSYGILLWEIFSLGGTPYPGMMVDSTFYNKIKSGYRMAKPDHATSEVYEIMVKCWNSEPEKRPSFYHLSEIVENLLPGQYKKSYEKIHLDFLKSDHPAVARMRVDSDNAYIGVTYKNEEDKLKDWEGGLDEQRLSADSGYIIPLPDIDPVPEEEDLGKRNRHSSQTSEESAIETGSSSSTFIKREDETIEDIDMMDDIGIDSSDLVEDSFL

[4] = biological target: T2, panel of 255 (vepafestinib) or 256 (all other inhibitors) recombinant kinases (Homo sapiens, UniProt P35916); assay: as above; assay type: biochemical; conditions: 17 nM
T2 construct: purchased Carna Biosciences
T2 sequence (P35916 25-1363): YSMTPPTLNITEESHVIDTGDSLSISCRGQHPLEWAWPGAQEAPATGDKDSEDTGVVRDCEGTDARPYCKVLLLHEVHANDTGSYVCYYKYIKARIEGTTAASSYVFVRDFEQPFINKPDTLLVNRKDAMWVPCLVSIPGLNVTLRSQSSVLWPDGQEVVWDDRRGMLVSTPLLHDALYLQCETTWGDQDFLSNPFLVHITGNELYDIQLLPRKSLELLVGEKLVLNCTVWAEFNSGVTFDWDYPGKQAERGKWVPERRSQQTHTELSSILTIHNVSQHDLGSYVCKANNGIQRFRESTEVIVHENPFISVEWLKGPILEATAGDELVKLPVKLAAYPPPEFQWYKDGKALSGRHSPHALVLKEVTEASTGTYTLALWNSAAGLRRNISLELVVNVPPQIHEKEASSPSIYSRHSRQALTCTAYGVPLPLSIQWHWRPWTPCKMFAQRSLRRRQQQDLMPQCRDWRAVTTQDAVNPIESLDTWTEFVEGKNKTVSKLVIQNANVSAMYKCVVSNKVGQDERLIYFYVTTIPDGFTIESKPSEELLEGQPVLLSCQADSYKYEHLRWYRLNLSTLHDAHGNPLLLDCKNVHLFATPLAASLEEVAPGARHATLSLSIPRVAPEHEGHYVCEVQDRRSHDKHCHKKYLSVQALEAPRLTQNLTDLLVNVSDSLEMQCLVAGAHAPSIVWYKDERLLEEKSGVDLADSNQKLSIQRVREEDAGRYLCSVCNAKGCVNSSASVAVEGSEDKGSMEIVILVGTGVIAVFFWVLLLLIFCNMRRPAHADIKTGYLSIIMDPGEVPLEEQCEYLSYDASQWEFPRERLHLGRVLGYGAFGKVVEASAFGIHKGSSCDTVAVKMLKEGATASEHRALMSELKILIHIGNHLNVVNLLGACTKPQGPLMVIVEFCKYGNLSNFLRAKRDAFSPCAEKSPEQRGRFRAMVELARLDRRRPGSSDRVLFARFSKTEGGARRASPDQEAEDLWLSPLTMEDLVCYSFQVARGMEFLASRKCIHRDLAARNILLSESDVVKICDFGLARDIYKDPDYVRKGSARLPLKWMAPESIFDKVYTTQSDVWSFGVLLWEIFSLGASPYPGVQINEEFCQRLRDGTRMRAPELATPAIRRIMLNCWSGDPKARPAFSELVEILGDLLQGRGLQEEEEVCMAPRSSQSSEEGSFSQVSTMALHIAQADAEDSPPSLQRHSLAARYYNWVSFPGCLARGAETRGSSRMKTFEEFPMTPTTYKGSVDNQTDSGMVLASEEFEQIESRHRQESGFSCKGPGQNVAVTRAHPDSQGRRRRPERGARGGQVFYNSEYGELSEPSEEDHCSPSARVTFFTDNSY

[5] = biological target: panel of 255 (vepafestinib) or 256 (all other inhibitors) recombinant kinases; assay: as above; assay type: biochemical; conditions: 17 nM, 256 kinases
LUAD-0002AS1 cells = assay: Growth inhibition (alamarBlue, 96 h); assay type: cell-based, human; conditions: for raw viability signal (Source Data Fig. 3b-c): LUAD-0002AS1, replicate sets
[6] = system: HBECp53-RET cells (CCDC6-RET fusion); assay: Growth inhibition (alamarBlue, 96 h); assay type: cell-based, human; conditions: for raw viability signal (Source Data Fig. 3b-c): HBEC-RET, replicate sets
[7] = system: Ba/F3 cells expressing KIF5B–RET^WT; assay: Growth inhibition assay in Ba/F3 cells (CellTiter-Glo, 72 h); assay type: cell-based; conditions: replicate sets
[8] = system: Ba/F3 cells expressing KIF5B–RET^V804L; assay: as above; assay type: cell-based; conditions: Ba/3-KIF5B-RET-V804L; replicate sets
ECLC5B cells = assay: Growth inhibition (alamarBlue, 96 h); assay type: cell-based, human; conditions: for raw viability signal (Source Data Fig. 3b-c): ECLC5B, replicates
LUAD-0057BS1 cells = assay: Growth inhibition (alamarBlue, 96 h); assay type: cell-based, human; conditions: for raw viability signal (Source Data Fig. 3b-c): LUAD-0057BS1, replicate sets
[9] = system: Ba/F3 cells expressing KIF5B–RET^G810C; assay: Growth inhibition assay in Ba/F3 cells (CellTiter-Glo, 72 h); assay type: cell-based; conditions: replicate Sets 1-3
Ba/F3-CCDC6::RET = assay: as above; assay type: cell-based
[10] = Homo sapiens, 96 h, read-out: IC50 for Inhibition of Growth (95% CI)

Structure (SMILES): CO[C@]1(C(=O)N[C@@H](C)c2ccc(-n3cc(F)cn3)nc2)CC[C@H](c2nc(C)cc(Nc3cc(C)[nH]n3)n2)CC1 [Pralsetinib]
- GI50 ([1]; Ba/3-KIF5B-RET-G810R): 1420 nM and 1200 nM
- GI50 ([1]; Mus musculus, BaF3, Ba/3-KIF5B-RET-G810R): 816 nM
- IC50 (MMNK1 cholangiocytes; [10]): 1220 nM
- raw viability signal (Source Data Fig. 3b-c) (MMNK1 cholangiocytes; 0.01 nM): 14061.5 and 14595.7
- raw viability signal (Source Data Fig. 3b-c) (MMNK1 cholangiocytes; 0.1 nM): 14508.1 and 15314.3
- raw viability signal (Source Data Fig. 3b-c) (MMNK1 cholangiocytes; 1 nM): 14527.4 and 15275.2
- raw viability signal (Source Data Fig. 3b-c) (MMNK1 cholangiocytes; 10 nM): 14437.6 and 14593.5
- raw viability signal (Source Data Fig. 3b-c) (MMNK1 cholangiocytes; 100 nM): 12743.6 and 12893.3
- raw viability signal (Source Data Fig. 3b-c) (MMNK1 cholangiocytes; 1000 nM): 8417.95 and 8619.63
- raw viability signal (Source Data Fig. 3b-c) (MMNK1 cholangiocytes; 10000 nM): 2073.73 and 2410.62
- GI50 (Ba/F3-CCDC6::RET^S904F; BaF3/CCDC6-RET, read-out: GI50 values, Ba/F3-CCDC6::RET S904F, individual sets (replicate experiments)): 6.22 nM
- GI50 (Ba/F3-CCDC6::RET^S904F; Mus musculus, BaF3, 72 h, read-out: GI50 value (Mean ± SD), Ba/F3-CCDC6::RET^S904F, CellTiter-Glo, 72 h): 6.02 ± 1.69 nM
- GI50 (Ba/F3-CCDC6::RET^S904F; read-out: GI50 values, Ba/F3-CCDC6::RET S904F, individual sets (replicate experiments)): 7.61 nM and 4.24 nM
- IC50 (LUAD-0086AS3 cells; [10]): 121 nM
- raw viability signal (Source Data Fig. 3b-c) (LUAD-0086AS3 cells; 0.01 nM): 31309.7 and 31098.7 and 34263.2
- raw viability signal (Source Data Fig. 3b-c) (LUAD-0086AS3 cells; 0.1 nM): 29924.8 and 30921.2 and 29063.2
- raw viability signal (Source Data Fig. 3b-c) (LUAD-0086AS3 cells; 1 nM): 27745.6 and 30045.6 and 27962.9
- raw viability signal (Source Data Fig. 3b-c) (LUAD-0086AS3 cells; 10 nM): 27211.8 and 27719.7 and 26448.1
- raw viability signal (Source Data Fig. 3b-c) (LUAD-0086AS3 cells; 100 nM): 16795 and 17102.3 and 12766
- raw viability signal (Source Data Fig. 3b-c) (LUAD-0086AS3 cells; 1000 nM): 14016.5 and 12908.6 and 9876.85
- raw viability signal (Source Data Fig. 3b-c) (LUAD-0086AS3 cells; 10000 nM): 5069.85 and 4707.96 and 4562.26
- Change in tumor volume (% from base line) (LUAD-0087AS2 PDX; Fig. 6a LUAD-0087AS2, individual animals): -36.557% and -40.331% and -44.442% and -50.767%
- Area Under Curve Mean (LUAD-0087AS2 PDX; Fig. 6a LUAD-0087AS2 tumor growth): -1718
- Papp at 3 h, 1 μM [2]: 14.3 ×10⁻⁶ cm/s
- % Inhibiton PDGFRα [3]: 57.1%
- % Inhibiton FLT4 [4]: 74%
- kinases inhibited by >50% [5]: 11
- IC50 (LUAD-0002AS1 cells; [10]): 4 nM
- raw viability signal (Source Data Fig. 3b-c) (LUAD-0002AS1 cells; 0.01 nM): 15231.7 and 11282.9 and 12487.7
- raw viability signal (Source Data Fig. 3b-c) (LUAD-0002AS1 cells; 0.1 nM): 13433.7 and 11365.6 and 12797.1
- raw viability signal (Source Data Fig. 3b-c) (LUAD-0002AS1 cells; 1 nM): 14274.6 and 7102.45 and 10515
- raw viability signal (Source Data Fig. 3b-c) (LUAD-0002AS1 cells; 10 nM): 5412.04 and 2878.75 and 4059.15
- raw viability signal (Source Data Fig. 3b-c) (LUAD-0002AS1 cells; 100 nM): 2211.78 and 2052.44 and 2966.29
- raw viability signal (Source Data Fig. 3b-c) (LUAD-0002AS1 cells; 1000 nM): 1138.02 and 1548.13 and 2436.62
- raw viability signal (Source Data Fig. 3b-c) (LUAD-0002AS1 cells; 10000 nM): 935.955 and 1429.45 and 2173.09
- raw viability signal (Source Data Fig. 3b-c) ([6]; 0.01 nM): 15373.7 and 12510.4 and 10530.7 and 16787.4
- raw viability signal (Source Data Fig. 3b-c) ([6]; 0.1 nM): 15070.3 and 13088.9 and 11587.4 and 17702.2
- raw viability signal (Source Data Fig. 3b-c) ([6]; 1 nM): 15214.6 and 13110.8 and 10795 and 16054.2
- raw viability signal (Source Data Fig. 3b-c) ([6]; 10 nM): 6804.19 and 10276.4 and 9347.81 and 15758.2
- raw viability signal (Source Data Fig. 3b-c) ([6]; 100 nM): 3516.93 and 4294.46 and 3038.53 and 6985.58
- raw viability signal (Source Data Fig. 3b-c) ([6]; 1000 nM): 2132.67 and 2668.84 and 1165.86 and 3483.36
- raw viability signal (Source Data Fig. 3b-c) ([6]; 10000 nM): 830.793 and 1030.6 and 876.114 and 1589.72
- IC50 ([6]; Homo sapiens, 96 h, read-out: IC50 for Inhibition of Growth (95% CI), HBECp53-RET, alamarBlue, 96 h): 35 nM
- GI50 ([7]; Ba/3-KIF5B-RET): 7.33 nM and 4.09 nM
- GI50 ([7]; Mus musculus, BaF3, Ba/3-KIF5B-RET): 8.11 nM
- GI50 [8]: 10.6 nM and 6.67 nM and 4.32 nM
- raw viability signal (Source Data Fig. 3b-c) (ECLC5B cells; 0.01 nM): 11159.3 and 6334.79 and 21867.4
- raw viability signal (Source Data Fig. 3b-c) (ECLC5B cells; 0.1 nM): 11498.4 and 7246.25 and 22158.4
- raw viability signal (Source Data Fig. 3b-c) (ECLC5B cells; 1 nM): 11273.5 and 6357.98 and 19717.2
- raw viability signal (Source Data Fig. 3b-c) (ECLC5B cells; 10 nM): 5160.26 and 1378.73 and 8133.57
- raw viability signal (Source Data Fig. 3b-c) (ECLC5B cells; 100 nM): 2920.41 and 1318.47 and 4448.62
- raw viability signal (Source Data Fig. 3b-c) (ECLC5B cells; 1000 nM): 1849.04 and 1272.17 and 3256.96
- raw viability signal (Source Data Fig. 3b-c) (ECLC5B cells; 10000 nM): 1438.61 and 1223.5 and 2843.35
- IC50 (ECLC5B cells; [10]): 6 nM
- IC50 (LUAD-0057BS1 cells; [10]): 36 nM
- raw viability signal (Source Data Fig. 3b-c) (LUAD-0057BS1 cells; 0.01 nM): 16595.3 and 17181.3 and 21729.4
- raw viability signal (Source Data Fig. 3b-c) (LUAD-0057BS1 cells; 0.1 nM): 16479.6 and 19958 and 20455.1
- raw viability signal (Source Data Fig. 3b-c) (LUAD-0057BS1 cells; 1 nM): 16334.3 and 18804.2 and 20595.3
- raw viability signal (Source Data Fig. 3b-c) (LUAD-0057BS1 cells; 10 nM): 13376 and 14580.9 and 14292.2
- raw viability signal (Source Data Fig. 3b-c) (LUAD-0057BS1 cells; 100 nM): 5525.42 and 5782.49 and 4569.11
- raw viability signal (Source Data Fig. 3b-c) (LUAD-0057BS1 cells; 1000 nM): 1800.25 and 2058.52 and 1619.82
- raw viability signal (Source Data Fig. 3b-c) (LUAD-0057BS1 cells; 10000 nM): 968.48 and 1261.32 and 1236.21
- GI50 ([9]; Ba/3-KIF5B-RET-G810C): 44.4 nM
- GI50 ([9]; Mus musculus, BaF3, Ba/3-KIF5B-RET-G810C): 66.9 nM
- GI50 (Ba/F3-CCDC6::RET; BaF3/CCDC6-RET, 72 h, read-out: GI50 value (Mean ± SD), Ba/F3-CCDC6::RET, CellTiter-Glo, 72 h): 19.9 ± 10.6 nM
- GI50 (Ba/F3-CCDC6::RET; read-out: GI50 values, Ba/F3-CCDC6::RET, individual sets (replicate experiments)): 11.8 nM and 31.9 nM and 15.9 nM
